# Key:
# [1] = tested on: xylene-induced mouse ear edema; experiment: Xylene-induced mouse ear edema (Effect Example 6); assay type: in vivo, Kunming mice; conditions: dexamethasone 9.9 ug/kg fed
# Excerpt: Influences of Sarcococca […] to xylene-induced mouse ear edema. Roots of Sarcococca […] dried in the sun, and ground to powder for subsequent use. 1. […] Test reagent: Sarcococca […] powder, dexamethasone acetate tablets (Zhejiang Xianju Pharmaceutical Co., Ltd., batch No. 120347), and glacial acetic acid and xylene were both analytically pure. 3. […] After the Sarcococca […] powder was sieved by 120 meshes, a suitable amount of the Sarcococca […] powder was taken and dissolved in a 0.5% sodium carboxymethylcellulose solution, to prepare high-dosage (0.30 g/ml), medium-dosage (0.15 g/ml), and low-dosage (0.075 g/ml) Sarcococca […] powder suspension. The dexamethasone acetate tablets were ground in the 0.5% sodium carboxymethylcellulose solution, to prepare 19.8 ug/ml suspension. […] For each group, the mice were fed twice each day for first two days, once on the third day, and after 30 min, 0.05 ml of xylene was applied to both front and back faces of right ear of each mouse in each group, while left ear was not coated with the medicine as control. 40 min after the coating, the mice were killed by cervical dislocation, the left and right ears were cut off, and ear slices at the same parts of the two ears were taken with a puncher and weighed. The difference between weights of the left and right ears is swelling degree. Each group was recorded, and t test was carried out among the groups. […]
# [2] = tested on: capillary permeability of mouse abdominal cavities; experiment: Inhibition of capillary permeability of mouse abdominal cavities, Evans blue / glacial acetic acid (Effect Example 7); assay type: in vivo, Kunming mice; conditions: dexamethasone 9.9 ug/kg fed; 580 nm
# Excerpt: Test for Sarcococca […] effect of inhibiting capillary permeability. Roots of Sarcococca […] dried in the sun, and ground to powder for subsequent use. 1. […] 2. Test reagent: Sarcococca […] powder, dexamethasone acetate tablets (Zhejiang Xianju Pharmaceutical Co., Ltd., batch No. 120347), and glacial acetic acid and xylene were both analytically pure. 3. […] After the Sarcococca […] powder was sieved by 120 meshes, a suitable amount of the Sarcococca […] powder was taken and dissolved in a 0.5% sodium carboxymethylcellulose solution, to prepare high-dosage (0.30 g/ml), medium-dosage (0.15 g/ml), and low-dosage (0.075 g/ml) Sarcococca […] powder suspension. The dexamethasone acetate tablets were ground in the 0.5% sodium carboxymethylcellulose solution, to prepare 19.8 ug/ml suspension. […] For each group, the mice were fed twice each day for the first two days, fed once on the third day, after 30 min, the animals in each group were injected with Evans blue saline at 0.1 ml/10 g through tail vein, then were intraperitoneally injected with 0.9% glacial acetic acid, 40 min after the injection, each animal was killed by cervical dislocation, whose abdominal cavity was washed with saline, and a washing liquid was collected, to be adjusted to a volume of 7 ml, centrifuged at 3000 r/min for 5 min, and measured in absorbance at a 580 nm wavelength.
# allergic dermatitis = experiment: Clinical treatment of allergic skin diseases with ointment (Effect Example 2); assay type: in vivo, human
# Excerpt: For the purpose of explaining application of the Chinese medicinal ointment provided in the present disclosure for treating allergic skin diseases, for example, treating dermatitis and eczema.
# 1. Subjects: 300 patients were collected clinically, with […] and 131 females, between 19 years old and 68 years old, all of whom suffered from allergic dermatitis.
# (§1) 2. Test grouping: the patients were randomly grouped into 3 groups, 100 patients in each group. The Chinese medicinal ointment prepared in Examples 1-9 was used for the test group, the Chinese medicinal ointment prepared in the comparative example was used for Control Group 1, and another commercially available ointment for treating dermatitis, e.g. Fluocinolone acetonide, was used for Control Group 2. For each patient, the corresponding ointment was applied on affected parts twice a day, for 1 month continuously.
# (§2) 3. Criterion of therapeutic effect:
# Cured: clinical symptoms completely disappear;
# Total effective rate=(cured cases+effective cases)/total cases
# [3] = tested on: tinea capitis, tinea corporis, tinea cruris or tinea of feet and hands; experiment: Clinical treatment of fungal skin diseases with ointment (Effect Example 3); assay type: in vivo, human
# Excerpt: For the purpose of explaining application of the Chinese medicinal ointment provided in the present disclosure for treating fungal skin diseases, for example, treating tinea capitis, tinea corporis, tinea cruris and tinea of feet and hands.
# 1. Subjects: 150 patients were collected clinically, with 101 males and 49 females, between 16 years old and 65 years old, all of whom suffered from tinea capitis, tinea corporis, tinea cruris or tinea of feet and hands.
# as §1, with “50” for “100”, “tinea corporis,” for “dermatitis,”, “Ketoconazole,” for “Fluocinolone acetonide,”, “2 months” for “1 month”
# as §2
# Cured: Fungi microscopic examination is negative, and tinea and pruritus completely disappear;
# Effective: Fungi microscopic examination is negative, tinea substantially disappears, and pruritus is evidently alleviated;
# Ineffective: Fungi microscopic examination is positive, and tinea and pruritus are not relieved. Total effective rate=(cured cases+effective cases)/total cases
# [4] = cases of 50 patients per group, twice a day for 2 months
structure (smiles),measurement,setting,value
"CC(=O)OCC(=O)[C@@]1(O)[C@H](C)C[C@H]2[C@@H]3CCC4=CC(=O)C=C[C@]4(C)[C@@]3(F)[C@@H](O)C[C@@]21C [Dexamethasone, dexamethasone acetate]",Swelling Degree,[1]; 40 min after xylene,0.0101 ± 0.0034 g
same,Swelling Inhibition Rate,[1]; vs normal group,20.0%
same,Absorbance (A),[2],0.569 ± 0.238 ^
CC1(C)O[C@@H]2C[C@H]3[C@@H]4C[C@H](F)C5=CC(=O)C=C[C@]5(C)[C@@]4(F)[C@@H](O)C[C@]3(C)[C@]2(C(=O)CO)O1 [Fluocinolone acetonide],Total Effective Rate,"allergic dermatitis; (cured cases+effective cases)/total cases, twice a day for 1 month",77%
same,Cured,"allergic dermatitis; cases of 100 patients per group, applied twice a day for 1 month, clinical symptoms completely disappear",40
same,Ineffective,"allergic dermatitis; cases of 100 patients per group, twice a day for 1 month",23
same,Effective,"allergic dermatitis; cases of 100 patients per group, twice a day for 1 month, symptoms evidently improved",37
CC(=O)N1CCN(c2ccc(OCC3COC(Cn4ccnc4)(c4ccc(Cl)cc4Cl)O3)cc2)CC1 (centres unmarked) [Ketoconazole],Total Effective Rate,"[3]; (cured cases+effective cases)/total cases, twice a day for 2 months",74%
same,Cured,"[3]; cases of 50 patients per group, applied twice a day for 2 months, fungi microscopic examination negative, tinea and pruritus completely disappear",16
same,Effective,[3]; [4],21
same,Ineffective,[3]; [4],13
